Results: patent US8143212B2 (Vicuron Pharmaceuticals Inc., priority 2002, dated 2012)
Like-named read-outs stand apart in the source and are kept apart here.

Tests used:
[1] = Pharmacokinetics and safety in subjects with hepatic impairment (VER001-12); settings: human, in vivo, intravenous, 1000 mg Day 1 and 500 mg Day 8, Mean (±SD)
Excerpt: (§1) The study enrolled otherwise healthy subjects with mild, moderate, or severe hepatic impairment (Child-Pugh scores 5 to 6, 7 to 9, and 10 to 15, respectively) and matched control subjects with normal hepatic function.

Rat mass balance study = settings: rats
Protocol: Excreta and more than 40 different tissues were collected through 70 days post-administration, and the tissue distribution and pharmacokinetics of drug-derived radioactivity were determined.
Following dose administration, urine and feces were collected at 24 hour intervals to 14, 36, and 70 days after the dose (3 rats/final collection time). Water and methanol cage washes were also collected. Carcasses were analyzed at the end of the collection period. All samples were analyzed for total radioactivity content by liquid scintillation counting (LSC).

[2] = human, in vivo
Excerpt: as §1

[3] = Phase II SSTI trial: safety (adverse events); assay type: in vivo, human
Protocol: Each patient who received at least one dose of study drug (ITT population) was evaluated for drug safety through monitoring of adverse events (AE), including abnormal clinical laboratory test results and vital signs. AE were rated by the investigator as to their severity (mild, moderate, severe, life-threatening), and by the relationship to the study drug (not related, unlikely related, possibly related, or probably related).

[4] = system: hepatic cytochrome P450 isoenzymes
[5] = human, in vivo; remark: listed apart in the source
Protocol: The peak concentrations (Cmax) were obtained directly from the observed data. The area under the plasma concentration-time curve (AUC) were calculated using the linear trapezoidal rule.
Clinical Study VER001-13 examined subjects with mild and moderate renal impairment and Clinical Study VER001-1 examined subjects with severe renal impairment and subjects with end-stage renal disease (ESRD). Matched control subjects were enrolled in all studies. […] Subjects with ESRD were dependent on dialysis through the course of the study (3 times weekly).

[6] = system: Gram-positive isolates, including MRSA; assay type: cell-based; settings: baseline isolates, MITT
S haemolyticus = assay: MIC, microbiological activity (Table 3); assay type: cell-based; settings: L 602 S haemolyticus clin. isolate; read-out: MIC
S. pneumoniae = assay: Murine thigh-infection model (time kill, dosing regimen, PK/PD, neutrophils; Tables 31-33); assay type: in vivo, mice
Protocol: Each point represents the mean of 4 thighs. Five dose levels, ranging 16-fold were used.
Five different doses (two-fold increases) were used. […] Each point represents the mean of 4 thighs.
Each point represents the mean of four thighs.
Each point represents the mean value from 4 thighs. The static dose, and the doses associated with a 1 and 2 log kill were calculated from the parameters estimated by non-linear regression using the Hill equation.

[7] = Mean ± SD of S. pneumoniae strains, q 24 h regimen
[8] = Mean ± SD of S. pneumoniae strains, q 72 h regimen

In the case of CN[C@H]1C(=O)N[C@@H]2Cc3ccc(cc3)Oc3cc4cc(c3O[C@@H]3O[C@H](C(=O)O)[C@@H](O)[C@H](O)[C@H]3NC(=O)CCCCCCCCC(C)C)Oc3ccc(cc3Cl)[C@@H](O)[C@@H]3NC(=O)[C@H](NC(=O)[C@@H]4NC(=O)[C@@H](NC2=O)c2cc(cc(O)c2Cl)Oc2cc1ccc2O)c1ccc(O)c(c1)-c1c(O[C@H]2O[C@H](CO)[C@@H](O)[C@H](O)[C@@H]2O)cc(O)cc1[C@@H](C(=O)NCCCN(C)C)NC3=O [Dalbavancin], the half-life ([1]; t1/2, Mild Hepatic Impairment (N = 6)) is reported as 13.5 days, the half-life ([1]; t1/2, Moderate Hepatic Impairment (N = 6)) is reported as 13.3 days and the half-life ([1]; t1/2, Normal Hepatic Function (N = 9)) is reported as 13.4 days. The half-life ([1]; t1/2, Severe Hepatic Impairment (N = 5)) was 13.4 days, the “plasma t1/2” value (Rat mass balance study) was “approximately 1 week” and the tolerability [2] was “well tolerated”. The “≧1 AE possibly/probably related to treatment” value ([3]; Single-dose dalbavancin (N = 20)) was 55%, the “≧1 AE possibly/probably related to treatment” value ([3]; Two-dose dalbavancin (N = 21)) was 48% and the “AE leading to discontinuation of study medication” value ([3]; human, in vivo) was 0%. For the same molecule, the “clinically significant hepatotoxicity or nephrotoxicity” value ([3]; in vivo) was “no evidence”, the “premature discontinuation of treatment due to an AE” value ([3]; in vivo) was “No dalbavancin-treated patient discontinued treatment prematurely” and the “serious adverse events related to study drug treatment” value ([3]; in vivo) was “no serious adverse events”. The metabolism in vitro [4] was “not metabolized”, the “substrate, inhibitor, or inducer of hepatic cytochrome P450 isoenzymes” value [4] was “not a substrate, inhibitor, or inducer” and the tolerability [5] was “well tolerated”. For the same molecule, the Cmax ([5]; 1120 mg) was 325 µg/mL, the “Dalbavancin MIC” value ([6]; All S. aureus, Single dose Dalbavancin (1100 mg) group) was “(0.12)” and the “Dalbavancin MIC” value ([6]; All S. aureus, Standard of Care Regimens group) was “(0.016-0.25)”. For the same molecule, the “Dalbavancin MIC” value ([6]; All S. aureus, Two-dose Dalbavancin (1000/500 mg) group) was “(0.12)”, the “Dalbavancin MIC” value ([6]; Group B streptococcus, Standard of Care Regimens group) was “(0.016)” and the “Dalbavancin MIC” value ([6]; Group B streptococcus, Two-dose Dalbavancin (1000/500 mg) group) was “(0.016)”. For the same molecule, the “Dalbavancin MIC” value ([6]; Miscellaneous Streptococcus and nontypeable strains, Single dose Dalbavancin (1100 mg) group) was “(0.016)”, the “Dalbavancin MIC” value ([6]; Miscellaneous Streptococcus and nontypeable strains, Standard of Care Regimens group) was “(0.016)” and the “Dalbavancin MIC” value ([6]; Miscellaneous Streptococcus and nontypeable strains, Two-dose Dalbavancin (1000/500 mg) group) was “(0.016)”. For the same molecule, the “Dalbavancin MIC” value ([6]; Streptococcus pyogenes, Standard of Care Regimens group) was “(0.016)”, the MIC (S haemolyticus) was greater than 32 µg/mL and the “1 Log Kill f24AUC/MIC” value (S. pneumoniae; [7]) was 21 ± 7.4. For the same molecule, the “1 Log Kill mg/kg/24 h” value (S. pneumoniae; [7]) was 1.1 ± 0.47 mg/kg/24 h, the “2 Log Kill f24AUC/MIC” value (S. pneumoniae; [7]) was 24.3 ± 8.2 and the “2 Log Kill mg/kg/24 h” value (S. pneumoniae; [7]) was 1.23 ± 0.52 mg/kg/24 h. The “Static Effect f24AUC/MIC” value (S. pneumoniae; [7]) was 17.6 ± 6.9, the “Static Effect mg/kg/24 h” value (S. pneumoniae; [7]) was 0.91 ± 0.44 mg/kg/24 h and the “1 Log Kill f24AUC/MIC” value (S. pneumoniae; [8]) was 9.0 ± 5.8. The “1 Log Kill mg/kg/24 h” value (S. pneumoniae; [8]) was 0.93 ± 0.24 mg/kg/24 h, the “2 Log Kill f24AUC/MIC” value (S. pneumoniae; [8]) was 16.6 ± 12.3 and the “2 Log Kill mg/kg/24 h” value (S. pneumoniae; [8]) was 1.13 ± 0.36 mg/kg/24 h. The “Static Effect f24AUC/MIC” value (S. pneumoniae; [8]) was 7.2 ± 4.5, the “Static Effect mg/kg/72 h” value (S. pneumoniae; [8]) was 0.77 ± 0.18 mg/kg/72 h and the “1 Log Kill f24AUC/MIC” value (S. pneumoniae; SP1199, q 24 h regimen) was 19.4. The “1 Log Kill mg/kg/24 h” value (S. pneumoniae; SP1199, q 24 h regimen) was 0.49 mg/kg/24 h, the “2 Log Kill f24AUC/MIC” value (S. pneumoniae; SP1199, q 24 h regimen) was 22.7 and the “2 Log Kill mg/kg/24 h” value (S. pneumoniae; SP1199, q 24 h regimen) was 0.57 mg/kg/24 h. For the same molecule, the “Static Effect f24AUC/MIC” value (S. pneumoniae; SP1199, q 24 h regimen) was 16.0, the “Static Effect mg/kg/24 h” value (S. pneumoniae; SP1199, q 24 h regimen) was 0.40 mg/kg/24 h and the “1 Log Kill f24AUC/MIC” value (S. pneumoniae; SP1199, q 72 h regimen) was 12.1. For the same molecule, the “1 Log Kill mg/kg/24 h” value (S. pneumoniae; SP1199, q 72 h regimen) was 0.85 mg/kg/24 h, the “2 Log Kill f24AUC/MIC” value (S. pneumoniae; SP1199, q 72 h regimen) was 35.3 and the “2 Log Kill mg/kg/24 h” value (S. pneumoniae; SP1199, q 72 h regimen) was 0.99 mg/kg/24 h. The “Static Effect f24AUC/MIC” value (S. pneumoniae; SP1199, q 72 h regimen) was 10.3, the “Static Effect mg/kg/72 h” value (S. pneumoniae; SP1199, q 72 h regimen) was 0.72 mg/kg/72 h and the “1 Log Kill f24AUC/MIC” value (S. pneumoniae; SP1293, q 24 h regimen) was 21.7. For the same molecule, the “1 Log Kill mg/kg/24 h” value (S. pneumoniae; SP1293, q 24 h regimen) was 0.55 mg/kg/24 h, the “2 Log Kill f24AUC/MIC” value (S. pneumoniae; SP1293, q 24 h regimen) was 25.9 and the “2 Log Kill mg/kg/24 h” value (S. pneumoniae; SP1293, q 24 h regimen) was 0.65 mg/kg/24 h. For the same molecule, the “Static Effect f24AUC/MIC” value (S. pneumoniae; SP1293, q 24 h regimen) was 17.4, the “Static Effect mg/kg/24 h” value (S. pneumoniae; SP1293, q 24 h regimen) was 0.44 mg/kg/24 h and the “1 Log Kill f24AUC/MIC” value (S. pneumoniae; SP1293, q 72 h regimen) was 18. The “1 Log Kill mg/kg/24 h” value (S. pneumoniae; SP1293, q 72 h regimen) was 1.28 mg/kg/24 h, the “2 Log Kill f24AUC/MIC” value (S. pneumoniae; SP1293, q 72 h regimen) was 23.8 and the “2 Log Kill mg/kg/24 h” value (S. pneumoniae; SP1293, q 72 h regimen) was 1.68 mg/kg/24 h. For the same molecule, the “Static Effect f24AUC/MIC” value (S. pneumoniae; SP1293, q 72 h regimen) was 14.1.
